Source: the supplement of paper PMC10307832

Columns and labels:
Experiment in all cases: relative viability (nuclei count vs DMSO), 5 days (fraction); higher = more cells survive
Pemetrexed = compound: Nc1nc2[nH]cc(CCc3ccc(C(=O)N[C@@H](CCC(=O)O)C(=O)O)cc3)c2c(=O)[nH]1 [Pemetrexed]
Method in brief: (§1)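 Lung cancer cell lines received five library-drug doses (not always all listed) spaced by √10, pinned on vehicle-anchored 1536-well plates after an overnight stay at 37 °C. Five days later, with no medium change, nuclei were Hoechst-stained, imaged at 4× and counted with MetaXpress. Viability is treated-well nuclei relative to vehicle-well nuclei, as a median across plates. Passing plates had control CV below 25% and at least one doubling.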

Idelalisib = compound: CC[C@H](Nc1ncnc2[nH]cnc12)c1nc2cccc(F)c2c(=O)n1-c1ccccc1 [Idelalisib]
Method in brief: as §1

Idelalisib + OSI-027 = compound: CC[C@H](Nc1ncnc2[nH]cnc12)c1nc2cccc(F)c2c(=O)n1-c1ccccc1 [Idelalisib] + COc1cccc2cc(-c3nc([C@H]4CC[C@H](C(=O)O)CC4)n4ncnc(N)c34)[nH]c12 [OSI-027] (partner 0.5 µM)
Method in brief: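 Lung cancer cell lines, seeded in 1536-well plates, were treated the following day by pin tool with a single drug or with five library-drug doses (not always all listed) in √10 steps on top of a fixed anchor-drug dose. Cells were fixed and nuclei stained in one step after 5 days, and nuclei were counted. Relative viability is the nuclei count for treated wells divided by that for vehicle wells, reported as medians of duplicate plates.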

Cell Line	relative viability (Pemetrexed; 0.002 µM)	relative viability (Pemetrexed; 0.006325 µM)	relative viability (Pemetrexed; 0.02 µM)	relative viability (Pemetrexed; 0.06325 µM)	relative viability (Pemetrexed; 0.2 µM)	relative viability (Pemetrexed; 0.2 µM, anchor plate)	relative viability (Idelalisib; 0.04 µM)	relative viability (Idelalisib; 0.1265 µM)	relative viability (Idelalisib; 0.4 µM)	relative viability (Idelalisib; 1.265 µM)	relative viability (Idelalisib; 4 µM)	relative viability (Idelalisib + OSI-027; first compound 0.04 µM)	relative viability (Idelalisib + OSI-027; first compound 0.1265 µM)	relative viability (Idelalisib + OSI-027; first compound 0.4 µM)	relative viability (Idelalisib + OSI-027; first compound 1.265 µM)	relative viability (Idelalisib + OSI-027; first compound 4 µM)
NCI-H1793	0.909	0.807	0.986	0.987	0.93	0.923	1.01	1.02	0.569	0.846	0.545	0.366	0.273	0.17	0.246	0.159
CAL-12T	0.936	0.938	1.16	0.967	0.863	1.19	1.1	1.08	1.01	1.11	1.08	0.643	0.753	0.537	0.569	0.537
NCI-H1993	0.866	0.995	0.962	0.896	0.734	0.592	1.1	1.12	0.804	0.917	0.7	0.575	0.53	0.512	0.584	0.552
LXF-289	0.938	0.999	1.04	1.02	0.939	0.905	1.05	1.07	1	1.07	1.04	0.879	0.782	0.632	0.813	0.764
NCI-H1792	1.09	0.897	1	0.893	0.94	0.968	1.08	0.942	0.653	1.09	0.85	0.466	0.778	0.598	0.836	0.51
LU99A	0.869	0.92	1.07	1.08	–	–	1.08	1.08	0.814	1.14	1.05	0.302	0.322	0.242	0.298	0.305
SW 1573	1.04	0.951	1.05	0.893	0.976	0.897	1.09	0.886	0.896	0.961	0.923	0.625	0.656	0.518	0.492	0.531
COR-L23	0.998	0.979	1.04	0.375	0.211	0.2	1.12	1.05	0.931	1.14	0.949	0.78	0.815	0.722	0.809	0.74
NCI-H1755	0.872	0.983	1.01	0.995	0.879	0.47	1.01	1.01	0.955	0.926	0.949	0.69	0.687	0.584	0.675	0.573
LOU-NH91	0.948	1	1.06	0.678	0.521	0.388	1.07	0.882	0.878	0.762	0.932	0.776	0.732	0.687	0.517	0.708
